Measurements reported in patent US11419856B2, “Pharmaceutical combinations for use in the treatment of neoplastic diseases” (Basilea Pharmaceutica International AG, priority 2017, dated 2022).

What was measured:
[1] = Tolerability in the MDA-MB-231 xenograft model (body weight, mortalities); details: for Final body-weight / Body-weight change: mean ± SD
Protocol: (§1) The mice were housed on irradiated Enrich-o'Cobs™ Laboratory Animal Bedding in static micro-isolators on a 12-hour light cycle at 20-22° C. (68-72° F.) and 40-60% humidity. Charles River Discovery Services North Carolina (CR Discovery Services) specifically complies with the recommendations of the Guide for Care and Use of Laboratory Animals with respect to restraint, husbandry, surgical procedures, feed and fluid regulation, and veterinary care. The animal care and use program at CR Discovery Services is accredited by the Association for Assessment and Accreditation of Laboratory Animal Care International (AAALAC), which assures compliance with accepted standards for the care and use of laboratory animals. These considerations were taken into account in the way that the dosage regimes were designed and implemented.
All doses were adjusted to 10 mL/kg. The control groups received oral doses of vehicle (pH 5 buffered 0.9% NaCl solution). Eribulin was administered i.v. and BAL101553 orally. When eribulin and BAL0101553 were dosed in combination, Eribulin was administered to all groups first followed by BAL0101553 dosing within 30 minutes of the first regimen.
Body weights were recorded daily for days 1-5 and then twice weekly until the end of the study and tumor volumes were recorded twice weekly until the end of the experiment. These parameters were analyzed and graphically represented by using GraphPad-Prism™ 5 for Windows according to standard procedure. […] Skin and subcutaneous tissue including the tumor cell inoculation site from the flank region were resected, preserved in formalin and embedded in paraffin. Sections of approximately 5 μm were mounted on glass slides and stained with hematoxylin/eosin and were evaluated by a trained pathologist, to identify residual tumor cells at the site of injection, and were being reported as positive for the existence of residual tumor cells or as negative for a complete lack of any evidence of residual tumor cells.

[2] = tested on: MDA-MB-231 xenograft (human triple negative breast cancer); test: Antitumor efficacy and induction of cures in the MDA-MB-231 xenograft model (Examples 1A, 1B); type: in vivo, mouse
Protocol: as §1, with “Female athymic nude mice (Crl:NU(NCr)-Foxnlnu, Charles River) were used when ten weeks old with a body weight (BW) range of 19.7-27.1 g on Day 1 of the study. The animals were fed ad libitum water (reverse osmosis, 1 ppm Cl) and NIH 31 Modified and Irradiated Lab Diet® consisting of 18.0% crude protein, 5.0% crude fat, and 5.0% crude fiber. The mice” for “The mice”
The human MDA-MB-231 breast adenocarcinoma cells were grown to mid-log phase in RPMI-1640 medium containing 10% fetal bovine serum, 2 mM glutamine, 100 units/mL sodium penicillin G, 25 μg/mL gentamicin, and 100 μg/mL streptomycin sulfate. The tumor cells were cultured in tissue culture flasks in a humidified incubator at 37° C./5% CO2 and 95% air, harvested during exponential growth and resuspended in cold Phosphate-buffered saline (PBS). Each test animal received a subcutaneous (s.c.) injection of 5×10^6 MDA-MB-231 cells (0.1 mL cell suspension) into the right flank, and tumor growth was monitored as the average tumor size approached the target range of 100-150 mm^3. Tumors were measured (mm) in two dimensions using calipers, and volume was calculated using the formula: Tumor Volume (TV) (mm^3)=(width^2×length)/2. Eighteen days after tumor cell implantation, on Day 1 of the study, mice with individual tumor volumes ranging from 75 to 172 mm^3 were randomized into groups of 8-10 animals, with group mean tumor volumes of 114-124 mm^3.
BAL0101553 was dissolved in 0.9% NaCl in water buffered to pH 5 with 1% sodium acetate to yield 2, 2.5 and 3 mg/mL dosing solutions, providing 20, 25 and 30 mg/kg dosages, respectively, in 10 mL/kg dosing volumes. Eribulin (purchased from Eisai Co., Lot. No. 6217, 6288, 6289 and 6309) at 0.5 mg/mL concentration was diluted in saline to yield a 0.01, 0.025 and 0.05 mg/mL dosing solutions, providing 0.1, 0.25 and 0.5 mg/kg dosages, respectively, in a dosing volume of 10 mL/kg.
Groups of mice (n=8-10) bearing MDA-MB-231 tumors were dosed as outlined in the Tables 1 and 3. All doses were adjusted to 10 mL/kg. The control groups received oral doses of vehicle (pH 5 buffered 0.9% NaCl solution). Eribulin was administered i.v. and BAL101553 orally. When eribulin and BAL0101553 were dosed in combination, Eribulin was administered to all groups first followed by BAL0101553 dosing within 30 minutes of the first regimen.
Body weights were recorded daily for days 1-5 and then twice weekly until the end of the study and tumor volumes were recorded twice weekly until the end of the experiment. These parameters were analyzed and graphically represented by using GraphPad-Prism™ 5 for Windows according to standard procedure. […] Tumor free animals at the end of the study time were assessed for residual MDA-MB-231 tumor cells by pathological methods. Skin and subcutaneous tissue including the tumor cell inoculation site from the flank region were resected, preserved in formalin and embedded in paraffin.

[3] = E1A, Day 25, i.v. 0.1 mg/kg q2d D1-D9, 0.1 mg/kg q2d D12-D34
[4] = E1A, Day 25, i.v. 0.5 mg/kg q2d D1-D9, 0.5 mg/kg q2d D12-D34
[5] = E1B, Day 26, i.v. 0.1 mg/kg q2d D1-D21, 0.1 mg/kg q2d D25-D43
[6] = E1B, Day 26, i.v. 0.25 mg/kg q2d D1-D21, 0.25 mg/kg q2d D25-D43
[7] = E1B, Day 26, i.v. 0.5 mg/kg q2d D1-D21, 0.5 mg/kg q2d D25-D43
[8] = Day 26, Eribulin i.v. 0.1 mg/kg q2d D1-D21, 0.1 mg/kg q2d D25-D43
[9] = Day 26, Eribulin i.v. 0.25 mg/kg q2d D1-D21, 0.25 mg/kg q2d D25-D43
[10] = Day 26, Eribulin i.v. 0.5 mg/kg q2d D1-D21, 0.5 mg/kg q2d D25-D43
[11] = Day 100 (endpoint), Eribulin i.v. 0.1 mg/kg q2d D1-D21, 0.1 mg/kg q2d D25-D43
[12] = Day 100 (endpoint), Eribulin i.v. 0.25 mg/kg q2d D1-D21, 0.25 mg/kg q2d D25-D43
[13] = Day 100 (endpoint), Eribulin i.v. 0.5 mg/kg q2d D1-D21, 0.5 mg/kg q2d D25-D43
[14] = E1A, Day 25, i.v. 0-1 mg/kg q2d D1-D9, 0.1 mg/kg q2d D12-D34
[15] = E1A, Day 85 (endpoint), i.v. 0-1 mg/kg q2d D1-D9, 0.1 mg/kg q2d D12-D34
[16] = E1A, Day 85 (endpoint), i.v. 0.5 mg/kg q2d D1-D9, 0.5 mg/kg q2d D12-D34

SMILES: C=C1C[C@@H]2CC[C@@]34C[C@H]5O[C@H]6[C@@H](O3)[C@H]3O[C@H](CC[C@@H]3O[C@H]6[C@H]5O4)CC(=O)C[C@@H]3[C@@H](OC)[C@@H](C[C@H](O)CN)O[C@H]3C[C@H]3O[C@@H](CC[C@@H]1O2)C[C@@H](C)C3=C.CS(=O)(=O)O [Eribulin, (2R, 3R, 3aS, 7R, 8aS, 9S, 10aR, 11S, 12R, 13aR, 13bS, 15S, 18S, 21S, 24S, 26R, 28R, 29aS)-2-[(2S)-3-Amino-2-hydroxypropyl]-3-methoxy-26-methyl-20,27-dimethylidenehexacosahydro-11,15:18,21:24,28-triepoxy-7,9-ethano-12,15-methano-9H,15H-furo[3,2-i]furo[2′,3′:5,6]pyrano[4,3-b][1,4]dioxacyclopentacosin-5(4H)-one methanesulfonate (salt)]
- T/C (TC-BW, body weight) [1, 3]: 1.00
- T/C (TC-BW, body weight) [1, 4]: 0.96
- Final body-weight [1, 3]: 25.8 ± 3.0 g
- Final body-weight [1, 4]: 24.4 ± 1.9 g
- Body-weight change ([1]; E1A, day-0 until day-25, i.v. 0.1 mg/kg q2d D1-D9, 0.1 mg/kg q2d D12-D34): 2.1 ± 1.0 g
- Mortalities ([1]; E1A, i.v. 0.1 mg/kg q2d D1-D9, 0.1 mg/kg q2d D12-D34): 0/8
- Mortalities ([1]; E1A, i.v. 0.5 mg/kg q2d D1-D9, 0.5 mg/kg q2d D12-D34): 0/8
- T/C (TC-BW, body weight) [1, 5]: 1.09
- T/C (TC-BW, body weight) [1, 6]: 1.02
- T/C (TC-BW, body weight) [1, 7]: 1.03
- Final body-weight [1, 5]: 27.9 ± 2.7 g
- Final body-weight [1, 6]: 26.6 ± 1.7 g
- Final body-weight [1, 7]: 25.5 ± 1.5 g
- Body-weight change ([1]; E1B, day-0 until day-26, i.v. 0.1 mg/kg q2d D1-D21, 0.1 mg/kg q2d D25-D43): 3.9 ± 1.1 g
- Body-weight change ([1]; E1B, day-0 until day-26, i.v. 0.25 mg/kg q2d D1-D21, 0.25 mg/kg q2d D25-D43): 2.3 ± 1.0 g
- Body-weight change ([1]; E1B, day-0 until day-26, i.v. 0.5 mg/kg q2d D1-D21, 0.5 mg/kg q2d D25-D43): 2.3 ± 0.9 g
- Mortalities ([1]; E1B, i.v. 0.1 mg/kg q2d D1-D21, 0.1 mg/kg q2d D25-D43): 0/10
- Mortalities ([1]; E1B, i.v. 0.25 mg/kg q2d D1-D21, 0.25 mg/kg q2d D25-D43, a non-treatment related death footnoted): 0/10^+
- Mortalities ([1]; E1B, i.v. 0.5 mg/kg q2d D1-D21, 0.5 mg/kg q2d D25-D43): 0/10
- # of regressed tumors (total) [2, 8]: 2 (10)
- T/C [2, 8]: 0.12
- # of regressed tumors (total) [2, 9]: 8 (10)
- T/C [2, 9]: −0.05
- # of regressed tumors (total) [2, 10]: 10 (10)
- T/C [2, 10]: −0.09
- # of confirmed cures (total) [2, 11]: 0 (10)
- # of tumors with TV ≤ 4 mm^3 (total) [2, 11]: 0 (10)
- % cures [2, 11]: 0%
- # of confirmed cures (total) [2, 12]: 1 (9)
- # of tumors with TV ≤ 4 mm^3 (total) [2, 12]: 1 (10)
- % cures [2, 12]: 11%
- # of confirmed cures (total) [2, 13]: 6 (10)
- # of tumors with TV ≤ 4 mm^3 (total) [2, 13]: 2 (10)
- % cures [2, 13]: 60%
- # of regressed tumors (total) [2, 14]: 1 (8)
- T/C [2, 14]: 0.13
- # of regressed tumors (total) [2, 4]: 8 (8)
- T/C [2, 4]: −0.09
- # of confirmed cures (total) [2, 15]: 0 (8)
- # of tumors with TV ≤ 4 mm^3 (total) [2, 15]: 0 (8)
- % cures [2, 15]: 0%
- # of confirmed cures (total) [2, 16]: 1 (8)
- # of tumors with TV ≤ 4 mm^3 (total) [2, 16]: 3 (8)
- % cures [2, 16]: 12.5%
